Laboratory results as given in publication PMC6754304 (Cell, 2019).

Molecular target: S. cerevisiae HSP90 (HSP82) (Saccharomyces cerevisiae, UniProt P02829)
Sequence (P02829 whole entry): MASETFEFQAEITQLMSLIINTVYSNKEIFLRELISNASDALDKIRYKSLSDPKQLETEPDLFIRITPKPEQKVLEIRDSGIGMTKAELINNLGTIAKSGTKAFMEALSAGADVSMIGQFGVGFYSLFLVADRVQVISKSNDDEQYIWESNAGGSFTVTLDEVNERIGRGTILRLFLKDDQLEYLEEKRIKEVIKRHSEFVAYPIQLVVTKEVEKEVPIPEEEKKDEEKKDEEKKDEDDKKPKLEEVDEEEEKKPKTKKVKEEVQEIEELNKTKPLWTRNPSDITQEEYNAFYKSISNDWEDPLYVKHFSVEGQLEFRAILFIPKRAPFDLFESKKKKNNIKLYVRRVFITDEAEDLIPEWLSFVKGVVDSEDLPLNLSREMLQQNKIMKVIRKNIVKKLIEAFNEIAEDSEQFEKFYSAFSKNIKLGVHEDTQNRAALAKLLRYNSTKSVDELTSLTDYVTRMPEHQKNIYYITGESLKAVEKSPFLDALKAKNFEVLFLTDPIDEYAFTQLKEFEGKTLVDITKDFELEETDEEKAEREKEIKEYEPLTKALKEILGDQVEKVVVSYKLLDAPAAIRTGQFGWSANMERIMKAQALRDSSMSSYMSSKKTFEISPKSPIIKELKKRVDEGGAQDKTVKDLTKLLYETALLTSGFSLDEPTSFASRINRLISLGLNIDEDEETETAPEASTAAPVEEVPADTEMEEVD

**Q.** Which ATPase activity does the source give for `Nc1ncnc2c1ncn2[C@@H]1O[C@H](COP(=O)(O)OP(=O)(O)OP(=O)(O)O)[C@@H](O)[C@H]1O` [ATP] here?
**A.** Its ATPase activity is “assayed by measuring free phosphate release from ATP using the Malachite Green method”.
